Measured values taken from US20080161340A1, “Tetrahydroquinilinones, tetrahydronaphthyridones and derivatives thereof” (priority 2006, published 2008).

Legend:
Format in all cases: cell-based
hCB1 = target: T1, hCB1 (Homo sapiens, UniProt P21554); test: cAMP assay (LANCE TR-FRET) in CHO-K1 cells stably expressing hCB1, agonist/inverse agonist; conditions: intracellular cAMP, CHO-K1 hCB1 cells prestimulated with NKH-477, + agonist, − inverse agonist; for EC50: read-out: hCB1 EC50 class
T1 construct: host or cells: CHO-K1
T1 sequence (P21554 whole entry): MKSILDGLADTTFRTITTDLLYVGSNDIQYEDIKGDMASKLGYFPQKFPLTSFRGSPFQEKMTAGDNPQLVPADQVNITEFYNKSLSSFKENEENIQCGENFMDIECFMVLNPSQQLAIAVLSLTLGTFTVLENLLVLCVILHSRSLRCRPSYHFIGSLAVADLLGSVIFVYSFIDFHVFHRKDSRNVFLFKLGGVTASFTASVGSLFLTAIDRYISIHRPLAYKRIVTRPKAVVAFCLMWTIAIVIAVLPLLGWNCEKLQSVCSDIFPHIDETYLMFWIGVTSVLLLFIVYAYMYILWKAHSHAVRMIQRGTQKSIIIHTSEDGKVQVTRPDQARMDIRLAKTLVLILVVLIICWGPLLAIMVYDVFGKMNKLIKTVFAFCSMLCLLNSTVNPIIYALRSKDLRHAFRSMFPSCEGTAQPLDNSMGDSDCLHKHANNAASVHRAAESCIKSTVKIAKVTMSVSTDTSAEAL
Protocol: (§1) The ability of compounds to act as agonists or inverse agonists at human CB2 and CB1 receptors (hCB2, hCB1, respectively) was determined by measuring changes in intracellular cAMP levels. Chinese Hamster Ovary (CHO-K1) cell lines stably expressing hCB2 (Genebank: X74328) or hCB1 (Genebank: X54937) were purchased from Euroscreen (Gosselies, Belgium).
(§2) Cell lines were grown in suspension in EX-CELL 302 CHO Serum-free medium (Sigma, cat #14324C) supplemented with 1% Fetal Bovine Serum, glutamine and non-essential amino-acids under 0.4 mg/mL G418 selection.
(§3) Receptor mediated responses were determined by measuring changes in intracellular cAMP using LANCE cAMP detection kit (cat #AD0264, PerkinElmer, Wellesley, Mass.) based on time-resolved fluorescence resonance energy transfer (TR-FRET). Changes in cAMP were determined in cells pre-incubated with IBMX (isobutyl methylxanthine) and prestimulated with NKH-477 (a water soluble forskolin derivative, cat #1603, Tocris, Ellisville, Mo.) to increase basal cAMP levels as detailed below.
(§4) On the day of the experiment, cells were spun at low speed for 5 min at room temperature. The supernatant was removed and cells were resuspended in stimulation buffer (Hanks Buffered Salt Solution/5 mM HEPES, containing 0.5 mM IBMX (cat #17018, Sigma) and 0.02% BSA (PerkinElmer, cat #CR84-100)). Cell clumps were removed by filtering through cell strainer 40 μm (BD Falcon, Discovery Labware, Bedford, Mass.) and diluted to 2×10^5 cells/mL. Antibody supplied with the LANCE cAMP immunoassay kit was then added according to the manufacturer's instructions. An aliquot of cells was taken for un-induced controls. To the remaining cells was added NKH-477 (a water soluble forskolin derivative, Tocris cat #1603) to a final concentration of 2-8 μM. Cells were then incubated for 30 min at room temperature prior to adding to Proxiplates containing test compounds (final DMSO concentration was less than 0.5%) with a Multidrop bulk dispenser, followed by a sixty minute incubation at room temperature. The response was stopped by addition of the detection mix supplied with the LANCE kit.
(§5) The reagents were allowed to equilibrate for three hours prior to reading on an Envision multi-mode detector (PerkinElmer). TR-FRET was measured using a 330-380 nm excitation filter, a 665 nm emission filter, dichroic mirror 380 nm and Z=1 mm.
(§6) Cyclic AMP concentrations in each well were back-calculated from a cAMP standard curve run concurrently during each assay. Each plate contained 16 wells of forskolin stimulated cells and 16 wells of forskolin plus CP55,940-treated. CP55,940-treated cells were treated with CP55,940 (Tocris cat. # 0949) at 1 μm and the maximal response was used as the full range (100%) standard. WIN55,212 (Tocris cat. # 1038) was used as an internal standard. Concentrations of cAMP were expressed as a percent of the difference of these two groups of wells. Concentration-response data including ECso (the concentration of compound producing 50% of the maximal response) and intrinsic activity (the percent maximal activation compared to full activation by CP55,940) were determined using a four-parameter non-linear regression algorithm (Xlfit equation 251, IDBS).

rCB2 = target: T2, rCB2 (Rattus norvegicus, UniProt Q9QZN9); test: cAMP assay, rCB2 in Table 7, agonist/inverse agonist; conditions: intracellular cAMP; + agonist, − inverse agonist
T2 sequence (Q9QZN9 1-360): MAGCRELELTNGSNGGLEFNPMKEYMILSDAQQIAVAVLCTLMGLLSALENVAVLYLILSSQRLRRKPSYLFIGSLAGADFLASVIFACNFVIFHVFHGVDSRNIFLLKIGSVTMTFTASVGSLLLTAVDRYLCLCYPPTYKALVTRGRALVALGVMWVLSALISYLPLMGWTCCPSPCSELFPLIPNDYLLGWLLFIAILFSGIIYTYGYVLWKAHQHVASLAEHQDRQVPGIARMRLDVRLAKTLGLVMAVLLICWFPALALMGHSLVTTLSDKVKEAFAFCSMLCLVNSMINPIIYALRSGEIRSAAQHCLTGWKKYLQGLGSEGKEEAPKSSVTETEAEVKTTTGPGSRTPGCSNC
Protocol: as §3, §4, §5, §6

hCB2 = target: T3, hCB2 (Homo sapiens, UniProt P34972); test: cAMP assay (LANCE TR-FRET) in CHO-K1 cells stably expressing hCB2, agonist/inverse agonist; conditions: intracellular cAMP, CHO-K1 hCB2 cells prestimulated with NKH-477; + agonist, − inverse agonist
T3 construct: host or cells: CHO-K1
T3 sequence (P34972 whole entry): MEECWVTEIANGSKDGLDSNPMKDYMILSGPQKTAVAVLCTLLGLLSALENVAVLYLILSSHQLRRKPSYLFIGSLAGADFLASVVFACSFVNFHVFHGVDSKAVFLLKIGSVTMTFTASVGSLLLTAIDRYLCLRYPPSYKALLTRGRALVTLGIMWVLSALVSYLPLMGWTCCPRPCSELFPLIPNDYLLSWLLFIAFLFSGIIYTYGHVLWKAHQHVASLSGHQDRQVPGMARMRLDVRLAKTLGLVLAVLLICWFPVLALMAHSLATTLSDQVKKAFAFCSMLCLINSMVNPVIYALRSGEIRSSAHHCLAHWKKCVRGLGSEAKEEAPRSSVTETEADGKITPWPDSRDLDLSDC
Protocol: as §1, §2, §3, §4, §5, §6

Row | Structure (SMILES) | hCB1 EC50 class (hCB1) | rCB2 EC50 class (rCB2) | hCB2 EC50 class (hCB2) | EC50 (hCB1) [µM]
1 | CC(C)CS(=O)(=O)N1CCc2c(cc(-c3cccc(Cl)c3)c(=O)n2CC2CC2)C1 [Compound 50, 3-(3-chlorophenyl)-1-(cyclopropylmethyl)-6-(isobutylsulfonyl)-5,6,7,8-tetrahydro-1,6-naphthyridin-2(1H)-one] | −B | −B | +C | –
2 | COc1cccc(-c2cc3c(n(CC4CCC4)c2=O)CCN(S(C)(=O)=O)C3)c1 [Compound 52, 1-(cyclobutylmethyl)-3-(3-methoxyphenyl)-6-(methylsulfonyl)-5,6,7,8-tetrahydro-1,6-naphthyridin-2(1H)-one] | – | +A | +B | > 10
3 | CS(=O)(=O)N1CCc2c(cc(-c3ccccc3F)c(=O)n2CC2CCC2)C1 [Compound 53, 1-(cyclobutylmethyl)-3-(2-fluorophenyl)-6-(methylsulfonyl)-5,6,7,8-tetrahydro-1,6-naphthyridin-2(1H)-one] | – | +A | +A | > 10
4 | CC(=O)N1CCc2c(cc(-c3ccccc3F)c(=O)n2CC2CCC2)C1 [Compound 54, 6-acetyl-1-(cyclobutylmethyl)-3-(2-fluorophenyl)-5,6,7,8-tetrahydro-1,6-naphthyridin-2(1H)-one] | – | +A | +B | > 10
5 | CS(=O)(=O)N1CCc2c(cc(Cc3ccccc3F)c(=O)n2CC2CCC2)C1 [Compound 58, 1-(cyclobutylmethyl)-3-(2-fluorobenzyl)-6-(methylsulfonyl)-5,6,7,8-tetrahydro-1,6-naphthyridin-2(1H)-one] | +B | +A | +A | –
